In patent publication US20230151025A1, “SUBSTITUTED THIAZOLOPYRIDINES, SALTS THEREOF AND THEIR USE AS HERBICIDALLY ACTIVE SUBSTANCES” (Bayer Aktiengesellschaft, priority 2020, published 2023):

Tests used:
Type in all cases: in vivo
[1] = system: Matricaria inodora (MATIN); assay: Herbicidal post-emergence action (B), 1280 g/ha; conditions: rated visually after about 3 weeks vs untreated controls
Method in brief: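 Compounds formulated as wettable powder or emulsion concentrate, with 0.5% additive, sprayed at 600 l/ha onto one-leaf-stage plants grown in sandy loam for 2 to 3 weeks. Damage rated visually against untreated plants roughly 3 weeks later; 0% = like control, 100% = plants died.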

[2] = system: Digitaria sanguinalis (DIGSA); assay: Herbicidal post-emergence action (D), 320 g/ha; conditions: ca. 3 weeks
[3] = system: Echinochloa crus-galli (ECHCG); assay: Herbicidal pre-emergence action (C), 320 g/ha; conditions: ca. 3 weeks
Method in brief: (§1)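 Visual percent damage relative to untreated controls was scored about 3 weeks after treatment, where 100% means plants died off and 0% means like controls. Compounds, as WP or EC with 0.5% additive, were applied in 600 l water/ha to the soil covering sown seeds.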

[4] = system: Alopecurus myosuroides (ALOMY); assay: Herbicidal pre-emergence action (C), 320 g/ha; conditions: ca. 3 weeks
Method in brief: as §1

Setaria viridis (SETVI) [5] = assay: Herbicidal pre-emergence action (C), 320 g/ha; conditions: ca. 3 weeks
Method in brief: as §1

[6] = system: Matricaria inodora (MATIN); assay: Herbicidal pre-emergence action (C), 320 g/ha; conditions: ca. 3 weeks
Method in brief: as §1

[7] = system: Amaranthus retroflexus (AMARE); assay: Herbicidal pre-emergence action (C), 320 g/ha; conditions: ca. 3 weeks
Method in brief: as §1

[8] = system: Polygonum convolvulus (POLCO); assay: Herbicidal pre-emergence action (C), 320 g/ha; conditions: ca. 3 weeks
Method in brief: as §1

Veronica persica (VERPE) [9] = assay: Herbicidal pre-emergence action (C), 320 g/ha; conditions: ca. 3 weeks
Method in brief: as §1

[10] = system: Echinochloa crus-galli (ECHCG); assay: Herbicidal post-emergence action (D), 320 g/ha; conditions: ca. 3 weeks
Method in brief: (§2)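 Weeds sown in sandy loam and greenhouse-grown for 2 to 3 weeks, then sprayed at single-leaf stage with WP or EC formulations in water plus 0.5% additive at 600 l water/ha. After ca. 3 weeks, injury scored visually versus untreated controls: 0% = as control, 100% = plants dead.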

Lolium rigidum (LOLRI) = assay: Herbicidal post-emergence action (D), 320 g/ha; conditions: ca. 3 weeks
Method in brief: as §2

[11] = system: Alopecurus myosuroides (ALOMY); assay: Herbicidal post-emergence action (D), 320 g/ha; conditions: ca. 3 weeks
Method in brief: as §2

Setaria viridis (SETVI) [12] = assay: Herbicidal post-emergence action (D), 320 g/ha; conditions: ca. 3 weeks
Method in brief: as §2

[13] = system: Amaranthus retroflexus (AMARE); assay: Herbicidal post-emergence action (D), 320 g/ha; conditions: ca. 3 weeks
Method in brief: as §2

[14] = system: Polygonum convolvulus (POLCO); assay: Herbicidal post-emergence action (D), 320 g/ha; conditions: ca. 3 weeks
Method in brief: as §2

Veronica persica (VERPE) [15] = assay: Herbicidal post-emergence action (D), 320 g/ha; conditions: ca. 3 weeks
Method in brief: as §2

[16] = system: Abutilon theophrasti (ABUTH); assay: Herbicidal post-emergence action (D), 320 g/ha; conditions: ca. 3 weeks
Method in brief: as §2

Avena fatua [17] = assay: Herbicidal pre-emergence action (C), 320 g/ha; conditions: ca. 3 weeks
Method in brief: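 Weed and crop seeds sown in sandy loam; WP or EC formulations applied pre-emergence to the soil surface as aqueous suspension/emulsion with 0.5% additive at 600 l water/ha. Greenhouse-grown under optimum conditions; damage visually scored after ca. 3 weeks versus untreated controls (0% = as control, 100% = plants dead).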

Stellaria media (STEME) [18] = assay: Herbicidal pre-emergence action (C), 320 g/ha; conditions: visual grading after ca. 3 weeks vs untreated controls, 100% = plants have died off, 0% = as control plants
Method in brief: as §1

Viola tricolor (VIOTR) [19] = assay: Herbicidal pre-emergence action (C), 320 g/ha; conditions: ca. 3 weeks
Method in brief: as §1

[20] = system: Abutilon theophrasti (ABUTH); assay: Herbicidal pre-emergence action (C), 320 g/ha; conditions: ca. 3 weeks
Method in brief: as §1

Stellaria media (STEME) [21] = assay: Herbicidal post-emergence action (D), 320 g/ha; conditions: ca. 3 weeks
Method in brief: as §2

Viola tricolor (VIOTR) [22] = assay: Herbicidal post-emergence action (D), 320 g/ha; conditions: ca. 3 weeks
Method in brief: as §2

Avena fatua [23] = assay: Herbicidal post-emergence action (D), 320 g/ha; conditions: ca. 3 weeks

Row | SMILES | herbicidal activity MATIN [1] [%] | herbicidal effect DIGSA [2] [%] | herbicidal effect ECHCG [3] [%] | herbicidal effect ALOMY [4] [%] | herbicidal effect SETVI (Setaria viridis (SETVI) [5]) [%] | herbicidal effect MATIN [6] [%] | herbicidal effect AMARE [7] [%] | herbicidal effect POLCO [8] [%] | herbicidal effect VERPE (Veronica persica (VERPE) [9]) [%] | herbicidal effect ECHCG [10] [%] | herbicidal effect LOLRI (Lolium rigidum (LOLRI)) [%] | herbicidal effect ALOMY [11] [%] | herbicidal effect SETVI (Setaria viridis (SETVI) [12]) [%] | herbicidal effect AMARE [13] [%] | herbicidal effect POLCO [14] [%] | herbicidal effect VERPE (Veronica persica (VERPE) [15]) [%] | herbicidal effect ABUTH [16] [%] | herbicidal effect AVEFA (Avena fatua [17]) [%] | herbicidal effect VIOTR (Viola tricolor (VIOTR) [19]) [%] | herbicidal effect ABUTH [20] [%] | other results
1 | Cc1cc2scnc2nc1-c1ccccc1 [Example I-041] | 100 | 90 | 100 | 100 | 100 | 90 | 90 | 90 | 90 | 100 | 80 | 90 | 90 | 90 | 90 | 90 | 90 | 90 | – | – | –
2 | Fc1ccccc1-c1ccc2scnc2n1 [Example I-036, 5-(2-fluorophenyl)thiazolo[4,5-b]pyridine] | 100 | – | 100 | 100 | 100 | 100 | 100 | 90 | 90 | 80 | 80 | – | 80 | – | 80 | – | – | 100 | 100 | 90 | STEME, herbicidal effect in percent (%) (Stellaria media (STEME) [18]): 90%; herbicidal effect STEME (Stellaria media (STEME) [21]): 90%
3 | Fc1ccccc1-c1nc2ncsc2cc1Cl [Example I-017] | – | – | 100 | 100 | 100 | 90 | 90 | 90 | 90 | 80 | – | 90 | 80 | 100 | 90 | 90 | 80 | 90 | – | 80 | herbicidal effect VIOTR (Viola tricolor (VIOTR) [22]): 90%
4 | CCc1cc2scnc2nc1-c1ccccc1 [Example I-051] | 100 | 80 | 100 | 100 | 100 | 90 | 90 | 80 | 90 | 90 | 80 | 90 | 80 | 90 | 90 | 90 | – | 90 | 100 | 90 | –
5 | Cc1cc2scnc2nc1-c1ccsc1C [Example I-194] | 100 | – | 100 | 100 | 100 | 90 | 90 | 90 | 80 | 90 | – | 90 | 80 | 80 | – | – | – | – | 90 | – | herbicidal effect AVEFA (Avena fatua [23]): 80%
6 | Cc1cc2scnc2nc1-c1ccccc1Cl [Example I-045] | – | 90 | 100 | 100 | 100 | – | 90 | 80 | 90 | 90 | 80 | 90 | 80 | 100 | 90 | 90 | 90 | 90 | 80 | 80 | –
